Starred links: 1 amine or outer side, 2 acyl side, 3 side chain; linkers in the order of their positions; H or OH if unused. Positions of bridges follow the written chain, without caps; N, C: chain ends. Non-standard residues stand in square brackets, D forms with d. Residues, ends and D or L forms follow the SMILES beside them. Groups on a side chain read outwards from the residue. Chains are numbered I, II in the order given. *: point of attachment. F(4amPEG2NHDOTA-Lu) = lutetium complex of (S)-2,2',2''-(10-(1-(4-(2-amino-2-carboxyethyl)phenyl)-3,12-dioxo-5,8-dioxa-2,11-diazatridecan-13-yl)-1,4,7,10-tetraazacyclododecane-1,4,7-triyl)triacetic acid (Phe with 4-aminomethyl-PEG2-DOTA-Lu), O=C([O-])CN1CCN(CC(=O)[O-])CCN(CC(=O)NCCOCCOCC(=O)NCc2ccc(C[C@H](N[*:1])C(=O)[*:2])cc2)CCN(CC(=O)[O-])CC1.[Lu+3]; F4(amMeGlyDOTALu) = lutetium complex of (S)-2,2',2''-(10-(2-((2-((4-(2-amino-2-carboxyethyl)benzyl)amino)-2-oxoethyl)(methyl)amino)-2-oxoethyl)-1,4,7,10-tetraazacyclododecane-1,4,7-triyl)triacetic acid (Phe with 4-aminomethyl-N-methyl-Gly-D, CN(CC(=O)NCc1ccc(C[C@H](N[*:1])C(=O)[*:2])cc1)C(=O)CN1CCN(CC(=O)[O-])CCN(CC(=O)[O-])CCN(CC(=O)[O-])CC1.[Lu+3]; X1 = O=C(O)CN1CCN(CC(=O)O)CCN(CC(=O)NC(CC(=O)NCCOCCOCC(=O)[*:1])CC(=O)NCCOCCOCC(=O)[*:2])CCN(CC(=O)O)CC1; COpipzaa = 4-(carboxymethyl)piperazine-1-carbonyl, O=C(O)CN1CCN(C(=O)*)CC1; Nicotinoyl(6-NMe3+) = C[N+](C)(C)c1ccc(C(=O)*)cn1; Phe(4-CH2NH2) = NCc1ccc(C[C@H](N)C(=O)O)cc1; Piperazinyl(4-CH2COOH) = O=C(O)CN1CCN(*)CC1; AEF = NCCOc1ccc(C[C@H](N)C(=O)O)cc1; Nicotinoyl(6-F) = O=C(c1ccc(F)nc1)*; NMeF = CN[C@@H](Cc1ccccc1)C(=O)O; Aoc(2) = CCCCCC[C@H](N)C(=O)O; Ahp(2) = CCCCC[C@H](N)C(=O)O; hSer = N[C@@H](CCO)C(=O)O; AEEA = NCCOCCOCC(=O)O; CO = O=C([*:1])[*:2]; Propyl = CCC*
Legend:
[1] = biological target: T1, human FAP (Homo sapiens, UniProt Q12884); assay: Surface plasmon resonance (SPR) for peptide affinity, human FAP; assay type: binding; conditions: read-out: h. FAP, SPR, KD
T1 construct: the biotinylated His, Avi tag, human FAP (26-760, FAP-H82Q6); His; Avi tag (biotinylated); purchased AcroBiosystems FAP-H82Q6
T1 sequence (Q12884 26-760): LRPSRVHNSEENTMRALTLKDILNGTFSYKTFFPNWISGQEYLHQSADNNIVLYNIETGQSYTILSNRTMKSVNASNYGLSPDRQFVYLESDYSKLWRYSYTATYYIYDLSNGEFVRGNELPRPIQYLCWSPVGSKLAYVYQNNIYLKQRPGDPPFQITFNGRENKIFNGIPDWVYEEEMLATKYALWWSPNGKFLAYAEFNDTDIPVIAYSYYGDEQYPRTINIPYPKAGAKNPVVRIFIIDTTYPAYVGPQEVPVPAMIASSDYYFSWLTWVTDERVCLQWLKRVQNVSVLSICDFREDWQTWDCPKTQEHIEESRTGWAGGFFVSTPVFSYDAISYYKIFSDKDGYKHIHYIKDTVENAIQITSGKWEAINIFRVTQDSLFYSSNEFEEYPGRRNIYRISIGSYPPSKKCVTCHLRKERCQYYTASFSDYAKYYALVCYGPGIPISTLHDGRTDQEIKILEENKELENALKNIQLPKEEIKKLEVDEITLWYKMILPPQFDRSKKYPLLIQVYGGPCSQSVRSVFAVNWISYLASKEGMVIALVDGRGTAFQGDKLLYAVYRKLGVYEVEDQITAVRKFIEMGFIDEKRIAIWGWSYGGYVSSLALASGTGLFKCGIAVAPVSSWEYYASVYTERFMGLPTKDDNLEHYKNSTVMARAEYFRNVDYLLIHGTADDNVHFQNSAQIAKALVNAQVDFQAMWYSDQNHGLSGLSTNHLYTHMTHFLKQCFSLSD
Procedure: Peptide affinities (KD) were determined by SPR using a Biacore™ 8K device (Cytiva) towards the following proteins: biotinylated His, Avi tag, human FAP (26-760, FAP-H82Q6), biotinylated His, Avi tag, mouse FAP (26-761, FAP-M82Q5), His tag, human DPP4 (34-766, DP4-H82E3), all purchased from AcroBiosystems and His tag, mouse DPP4 (29-760, 954-SE) from R&D Systems. The FAP proteins and their homologous were diluted to a concentration of 2 μg/mL into acetate buffer pH 5.5, then immobilized onto a CM5 sensorchip (Cytiva, BR-1005-30) to reach a response around 2000 R U. The running buffer HBS-EP+pH 7.6 (20× from Teknova CAT. No: H8022) contained 10 mM HEPES pH 7.6, 150 mM NaCl, 3 mM EDTA, 0.05% Tween20 and 2% DMSO. Experiments were carried out at 25° C. using a flow rate of 30 μL/min. Compounds were tested in single cycle kinetic mode at 8 different concentrations. Curve fitting was performed using the Biacore™ 8K evaluation software. The sensorgrams were fitted by applying a 1:1 binding model to calculate kinetic rate constants and equilibrium dissociation constants (KD).
For this assay, the setup had the same conditions (flow rate, running buffer, peptide dilution) as described above for the CM5 method. The oligo CAP reagent obtained in the CAPture Kit (Ref. 28920234) was 1/5 diluted into running buffer and used with a contact time of 300 s at a flow rate of 2 μL/min. The human and mouse FAP constructs described above were used (from AcroBiosystems or produced in house). The FAP proteins were diluted to a concentration of 2 μg/mL into acetate pH 5.5, 0.05% Tween20 and used with a contact time of 600 s at a flow rate of 10 μL/min. The peptides were tested with an association time of 280 s followed by a dissociation time of 3000 s at a flow rate of 30 μL/min. The regeneration was done using the regeneration solution (8 M guanidine-HCl, 1 M NaOH) as obtained with a contact time of 270 s at a flow rate of 10 μL/min. […] The compounds marked with an asterisk were tested against human and mouse DDP4.

[2] = biological target: T2, mouse FAP (Mus musculus, UniProt P97321); assay: Surface plasmon resonance (SPR) for peptide affinity, mouse FAP; assay type: binding
T2 construct: biotinylated His, Avi tag, mouse FAP (26-761, FAP-M82Q5); His; Avi tag (biotinylated); purchased AcroBiosystems FAP-M82Q5
T2 sequence (P97321 26-761): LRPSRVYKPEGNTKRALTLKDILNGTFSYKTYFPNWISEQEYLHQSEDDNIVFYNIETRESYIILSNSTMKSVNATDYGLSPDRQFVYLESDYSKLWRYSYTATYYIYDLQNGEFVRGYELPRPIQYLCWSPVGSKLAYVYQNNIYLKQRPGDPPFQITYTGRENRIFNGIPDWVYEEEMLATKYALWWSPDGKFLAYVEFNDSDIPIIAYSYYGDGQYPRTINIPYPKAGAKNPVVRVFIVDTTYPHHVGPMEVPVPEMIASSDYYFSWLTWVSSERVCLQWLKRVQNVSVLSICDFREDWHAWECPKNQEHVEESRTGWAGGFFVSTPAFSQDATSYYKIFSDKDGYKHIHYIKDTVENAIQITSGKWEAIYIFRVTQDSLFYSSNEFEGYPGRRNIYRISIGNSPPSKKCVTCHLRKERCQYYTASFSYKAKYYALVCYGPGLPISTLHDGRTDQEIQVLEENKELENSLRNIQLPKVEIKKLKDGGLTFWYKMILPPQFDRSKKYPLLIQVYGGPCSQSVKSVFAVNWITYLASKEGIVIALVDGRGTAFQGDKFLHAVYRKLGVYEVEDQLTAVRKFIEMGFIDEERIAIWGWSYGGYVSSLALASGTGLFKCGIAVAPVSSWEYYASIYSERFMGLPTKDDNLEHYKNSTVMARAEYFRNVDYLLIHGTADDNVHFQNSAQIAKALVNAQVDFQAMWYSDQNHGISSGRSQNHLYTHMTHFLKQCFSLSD
Outline: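 KD values come from a 1:1 kinetic fit of single-cycle SPR data: 8 peptide concentrations, 25 °C, 30 μL/min, HEPES-buffered saline pH 7.6 with 2% DMSO. Targets were His/Avi-tagged human (26-760) or mouse (26-761) FAP, amine-coupled to CM5 or held on a CAPture chip.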

[3] = biological target: T1, human FAP; assay: Enzymatic FAP competition assay (Z-Gly-Pro-AMC fluorescence), human FAP; assay type: biochemical; conditions: read-out: h. FAP, Enz., IC50
Outline: (§1)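 IC50 values come from curve fitting of duplicate % inhibition data on AMC fluorescence (ex 380, em 460 nm) after 4 h at 22-24° C with 50 μM Z-Gly-Pro-AMC. Beforehand, peptides up to 1 μM (14 levels) sat 24 h with 0.01 nM human (26-760) or mouse (26-761) tagged FAP in phosphate buffer pH 7.5, NaCl, Tween20, 1% DMSO.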

[4] = biological target: T2, mouse FAP; assay: Enzymatic FAP competition assay (Z-Gly-Pro-AMC fluorescence), mouse FAP; assay type: biochemical; conditions: read-out: m. FAP, Enz., IC50
Outline: as §1

| Compound | Kd [1] | Kd [2] | IC50 [3] | IC50 [4] |
| --- | --- | --- | --- | --- |
| Gly-Gly-NMePhe-F4(amMeGlyDOTALu)-Ahp-Trp-Gly-Tyr-Asp-D-Pro (cyclo(GG[NMeF][F4(amMeGlyDOTALu)][Ahp(2)]WGYD[dP]); also: Lu complex) [Example C8] | 4 pM | 6 pM | 7 pM | 12 pM |
| Gly-Gly-NMePhe-F(4amPEG2NHDOTA-Lu)-Ahp-Trp-Gly-K(COpipzaa)-Asp-D-Pro (cyclo(GG[NMeF][F(4amPEG2NHDOTA-Lu)][Ahp(2)]WGK(COpipzaa)D[dP]); also: Lu complex) [Example C13] | < 11 pM | 24 pM | 4 pM | 11 pM |
| CCCCC[C@@H]1NC(=O)[C@H](Cc2ccc(OCCN)cc2)NC(=O)[C@H](Cc2ccccc2)N(C)C(=O)CNC(=O)[C@@H]2CCCN2C(=O)[C@H]2CCCN2C(=O)[C@H](CC(=O)O)NC(=O)[C@H](Cc2ccc(O)cc2)NC(=O)CNC(=O)[C@H](Cc2c[nH]c3ccccc23)NC1=O [Example A32, Pro-Gly-NMePhe-F(4OEtNH2)-Ahp-Trp-Gly-Tyr-Asp-D-Pro] (cyclo(G[NMeF][AEF][Ahp(2)]WGYD[dP]P)) | 270 pM | 550 pM | 239 pM | 1200 pM |
| CCCCCC[C@@H]1NC(=O)[C@H](Cc2ccc(CNC(=O)COCCOCCNC(=O)CC(CC(=O)NCCOCCOCC(=O)NCc3ccc(C[C@@H]4NC(=O)[C@H](Cc5ccccc5)N(C)C(=O)CNC(=O)CNC(=O)[C@H]5CCCN5C(=O)[C@H](CC(=O)O)NC(=O)[C@H](CCCCNC(=O)N5CCN(CC(=O)O)CC5)NC(=O)CNC(=O)[C@H](Cc5c[nH]c6ccccc56)NC(=O)[C@H](CCCCCC)NC4=O)cc3)NC(=O)CN3CCN(CC(=O)O)CCN(CC(=O)O)CCN(CC(=O)O)CC3)cc2)NC(=O)[C@H](Cc2ccccc2)N(C)C(=O)CNC(=O)CNC(=O)[C@H]2CCCN2C(=O)[C@H](CC(=O)O)NC(=O)[C@H](CCCCNC(=O)N2CCN(CC(=O)O)CC2)NC(=O)CNC(=O)[C@H](Cc2c[nH]c3ccccc23)NC1=O [Example M1] (I: cyclo(GG[NMeF][Phe(4-CH2NH2)][Aoc(2)]WGK([CO-Piperazinyl(4-CH2COOH)])D[dP]) / II: cyclo(GG[NMeF][Phe(4-CH2NH2)][Aoc(2)]WGK([CO-Piperazinyl(4-CH2COOH)])D[dP]); linker I:4-II:4 via X1) | < 30 pM | < 57 pM | 39 pM | 134 pM |
| CCCOCC[C@@H]1NC(=O)[C@H](Cc2ccc(CNC(=O)COCCOCCNC(=O)c3ccc(F)nc3)cc2)NC(=O)[C@H](Cc2ccccc2)N(C)C(=O)CNC(=O)CNC(=O)[C@H]2CCCN2C(=O)[C@H](CC(=O)O)NC(=O)[C@H](CCCCNC(=O)N2CCN(CC(=O)O)CC2)NC(=O)CNC(=O)[C@H](Cc2c[nH]c3ccccc23)NC1=O [Example C56, Gly-Gly-NMePhe-F(4amPEG2NHCOPy3(4F))-hS(Pr)-Trp-Gly-K(Copipzaa)-Asp-D-Pro] (cyclo(D[dP]GG[NMeF][Phe(4-CH2NH2)]([AEEA-Nicotinoyl(6-F)])[hSer](Propyl)WGK([CO-Piperazinyl(4-CH2COOH)]))) | < 7 pM | < 23 pM | 9 pM | 37 pM |
| CCCCC[C@@H]1NC(=O)[C@H](Cc2ccc(O)cc2)NC(=O)[C@H](Cc2ccccc2)N(C)C(=O)CNC(=O)CNC(=O)[C@H]2CCCN2C(=O)[C@H](CC(=O)O)NC(=O)[C@H](Cc2ccc(OC)cc2)NC(=O)CNC(=O)[C@H](Cc2c[nH]c3ccccc23)NC1=O [Example A13, Gly-Gly-NMePhe-Tyr-Ahp-Trp-Gly-F(4OMe)-Asp-D-Pro] (cyclo([Ahp(2)]WGY(Me)D[dP]GG[NMeF]Y)) | < 5 pM | 11 pM | 5 pM | 11 pM |
| CCCCCC[C@@H]1NC(=O)[C@H](Cc2ccc(CNC(=O)COCCOCCNC(=O)c3ccc([N+](C)(C)C)nc3)cc2)NC(=O)[C@H](Cc2ccccc2)N(C)C(=O)CNC(=O)CNC(=O)[C@H]2CCCN2C(=O)[C@H](CC(=O)O)NC(=O)[C@H](CCCCNC(=O)N2CCN(CC(=O)O)CC2)NC(=O)CNC(=O)[C@H](Cc2c[nH]c3ccccc23)NC1=O [Example C57, Gly-Gly-NMePhe-F(4amPEG2NHCOPy3(4(NMe3)))-Aoc-Trp-Gly-K(COpipzaa)-Asp-D-Pro] (cyclo([Aoc(2)]WGK([CO-Piperazinyl(4-CH2COOH)])D[dP]GG[NMeF][Phe(4-CH2NH2)]([AEEA-Nicotinoyl(6-NMe3+)]))) | < 13 pM | < 14 pM | 6 pM | 16 pM |
